In patent US11306074B2, “Chemical and method for analyzing DNA sequence by visualizing single-molecule DNA and use thereof” (SOGANG UNIVERSITY RESEARCH FOUNDATION, priority 2018, dated 2022):

Legend:
λ DNA = details: for staining / visualization of λ DNA molecules: λ DNA (48.5 kbp) tethered, 1×TE flow 100 μL/minute, 70 μM dye solution mixed 1:1, 20-fold diluted, FIGS. 2a-2c
Description: An inverted microscope (Olympus IX70, Tokyo, Japan) with 60× Olympus UPlanSApo oil immersion objectives illuminated with an LED light source (SOLA SM II light engine, Lumencor, Beaverton, Oreg., USA) was used. The light was passed through corresponding filter sets (Semrock, Rochester, N.Y., USA) to set the excitation and emission wavelengths. A maximum light intensity of 140 mW/cm^2 was measured. Fluorescence microscopic images were taken with an electron-multiplying charge-coupled device digital camera (Evolve EMCCD, Roper Scientific, Tucson, Ariz., USA) and stored in a 16-bit TIFF format using the software Micro-manager. For image processing and analysis, ImageJ software with Java plug-ins and python programs developed by the present inventors were utilized.
First, λ DNA (NCBI: NC_001416.1) was diluted to a concentration of 5 ng/μL (0.16 nM; base pair 7.76 μM) in 1×TE (10 mM Tris, 1 mM EDTA, pH 8.0) and mixed at a volume ratio of 1:1 with 70 μM of the Preparation Example solution. Next, the mixture was incubated at room temperature for 15 min and 20-fold diluted with 4% […] (β-ME) in 1×TE.
Separately, a flow chamber (5×10×0.1 mm (L×W×H)) was prepared by placing an acrylic support on an acid-cleaned cover slip, with the walls formed by double-sided tape, An NE-1000 syringe pump (New Era Pump Systems Inc., Wantagh, N.Y.) was used to control the buffer.
Thereafter, 40 μg/mL biotinylated bovine serum albumin (BSA) was injected and incubated at room temperature for 10 min, after which a dilution of 20 μg/mL Neutravidin in T50 solution (10 mM Tris, […], pH 8.0) was injected to the flow chamber and incubated at room temperature for 10 min.
Then, 1 μM of λ DNA overhang oligo (5′-p-[…]-Triethyleneglycol-biotin-3′) was loaded into the flow chamber and maintained at room temperature for 10 minutes. λ DNA, 200 U of T4 DNA ligase, and reaction buffer were added and incubated at room temperature for 30 minutes.
Stained DNA molecules were visualized under a continuous flow of 1×TE (100 μl/minute).

[1] = tested on: polytene chromosomes from the Drosophila melanogaster salivary gland; details: 2.5 μM in 4% β-ME; tangled and spread polytene chromosomes; FIG. 5a
Description: For comparison with DAPI, which is conventionally used to visualize polytene chromosomes on a fluorescence microscope, the polytene chromosomes from the Drosophila melanogaster salivary gland were stained with the compound.
In brief, dissected salivary glands from third larvae of Drosophila melanogaster were fixed with a solution containing a 1:2:3 ratio of propionic acid, deionized water, and acetic acid on a positively charged coverslip. Then, the cells were located between a slide glass and the coverslip and then the individual cells were gently spread. After moving the coverslip back and forth on the slide glass, the spread cells were squashed for up to 15 minutes. Then, the slide glass and coverslip were slightly dipped into liquid nitrogen. Just after no more bubbles were generated, the cover slip was removed from the slide glass.

Description for λ DNA genome: Python Program • ImageCompare.py: a library of functions, • seq2map.py: to convert a FASTA file into a A/T frequency in silico map wherein a selected sequence is represented in white for high frequency regions and in black for low frequency regions. • insilicoMapFolder.py: to scan and compare in silico image files and DNA images obtained through experiments with respect to all images in the folder, to search positions of sites having the highest cross-correlation coefficient, to convert the values, and to store the values in new record files. • sortView.py: to read record files obtained with the insilicoMapFolder.py, to compare signals, to search cross-correlation coefficients, and to visualize image comparison in a new window. • randomtiff.py: to generate random intensity tiff images
Cross-correlation (cc) coefficient values calculated by comparing the alignment of 20 molecular images of above three kinds of binding sequences (W, W4 and W9) with the genome. The control cross-correlation coefficient (hereinafter referred to as cc) was obtained by comparing the 100 computer-generated random sequences with the in silico images (***P<0.0001 for random-sequences paired t-test).

With `CN(C)CCCNC(=O)c1cc(NC(=O)c2cc(NC(=O)c3cc(NC(=O)c4cc(NC(=O)CCNC(=O)CCNC(=O)c5ccc(C(=O)[O-])c(-c6c7ccc(=[N+](C)C)cc-7oc7cc(N(C)C)ccc67)c5)cn4C)cn3C)cn2C)cn1C` [Comparative Example 1, (5-carboxytetramethylrhodamine)-(β-alanine)2-(N-methylpyrrole)4-(3-(dimethylamino)propylamine), reference compound] the “staining / visualization of λ DNA molecules” value (“staining / visualization” for short) (λ DNA) was “stained only in part AT-rich regions and bound undesired regions”.

`CN(C)CCCNC(=O)c1cc(NC(=O)c2cc(NC(=O)c3cc(NC(=O)c4cc(NC(=O)CCNC(=O)c5cc(NC(=O)c6cc(NC(=O)c7cc(NC(=O)c8cc(NC(=O)CCNC(=O)CCNC(=O)c9ccc(-c%10c%11ccc(=[N+](C)C)cc-%11oc%11cc(N(C)C)ccc%10%11)c(C(=O)[O-])c9)cn8C)cn7C)cn6C)cn5C)cn4C)cn3C)cn2C)cn1C` [Preparation Example, (5-carboxytetramethylrhodamine)-(β-alanine)2-(N-methylpyrrole)4-(β-alanine)-(N-methylpyrrole)4-(3-(dimethylamino)propylamine)] was tested, and the “cross-correlation coefficient (cc) of 20 molecular images aligned with λ DNA genome” value (λ DNA genome; W, W4, W9 maps, Python program, FIG. 3b) was “highest cc value for simple A/T frequency”, the “agreement of measured fluorescence intensity with in silico binding sequence profiles (W, W4, W9)” value (λ DNA genome; λ genome, FIG. 3a) was “agrees better with simple A/T frequency than W4 and W9” and the “staining / visualization” value (λ DNA) was “visualized λ DNA molecules with sequence specificity as well as enhancing the intensity of the molecules”. The “fluorescent λ DNA image quality compared with DAPI” value (λ DNA; λ DNA images, FIG. 5b) was “exhibits a clear backbone compared with DAPI-stained DNA” and the “staining of polytene chromosomal DNA” value [1] was “clearly demonstrate band and interband patterns”.

For “(5-carboxytetramethylrhodamine)-(β-alanine)2-(N-methylpyrrole)4-(5-carboxytetramethylrhodamine) [Comparative Example 2, reference compound]”, the “staining / visualization” value (λ DNA) was “did not bind double-stranded DNA at all”.
